# Measurements taken from doi:10.1101/2021.04.08.439011v1 (biorxiv, 2021).
# Like-named read-outs stand apart in the source and are kept apart here.
# Experiments:
# ABL1(F317I) = ABL1(F317I) (Homo sapiens, UniProt P00519, F317I); details: 1 µM, binder
# CASK = CASK (Homo sapiens, UniProt O14936); details: 1 µM; binder
# CDC2L5 = CDC2L5 (Homo sapiens, UniProt Q14004); details: 1 µM; binder
# CDK4-cyclinD3 = CDK4-cyclinD3 (Homo sapiens, UniProt P11802); details: 1 µM; binder
# CLK2 = CLK2 (Homo sapiens, UniProt P49760); details: 1 µM; binder
# CSNK1D = CSNK1D (Homo sapiens, UniProt P48730); details: 1 µM; binder
# CSNK1E = CSNK1E (Homo sapiens, UniProt P49674); details: 1 µM; binder
# DRAK1 = DRAK1 (Homo sapiens, UniProt Q9UEE5); details: 1 µM; binder
# EPHA5 = EPHA5 (Homo sapiens, UniProt P54756); details: 1 µM; binder
# EPHA8 = EPHA8 (Homo sapiens, UniProt P29322); details: 1 µM; binder
# FLT1 = FLT1 (Homo sapiens, UniProt P17948); details: 1 µM; binder
# JNK2 = JNK2 (Homo sapiens, UniProt P45984); details: 1 µM; binder
# MARK3 = MARK3 (Homo sapiens, UniProt P27448); details: 1 µM; binder
# Chain of MARK3 (P27448 whole entry): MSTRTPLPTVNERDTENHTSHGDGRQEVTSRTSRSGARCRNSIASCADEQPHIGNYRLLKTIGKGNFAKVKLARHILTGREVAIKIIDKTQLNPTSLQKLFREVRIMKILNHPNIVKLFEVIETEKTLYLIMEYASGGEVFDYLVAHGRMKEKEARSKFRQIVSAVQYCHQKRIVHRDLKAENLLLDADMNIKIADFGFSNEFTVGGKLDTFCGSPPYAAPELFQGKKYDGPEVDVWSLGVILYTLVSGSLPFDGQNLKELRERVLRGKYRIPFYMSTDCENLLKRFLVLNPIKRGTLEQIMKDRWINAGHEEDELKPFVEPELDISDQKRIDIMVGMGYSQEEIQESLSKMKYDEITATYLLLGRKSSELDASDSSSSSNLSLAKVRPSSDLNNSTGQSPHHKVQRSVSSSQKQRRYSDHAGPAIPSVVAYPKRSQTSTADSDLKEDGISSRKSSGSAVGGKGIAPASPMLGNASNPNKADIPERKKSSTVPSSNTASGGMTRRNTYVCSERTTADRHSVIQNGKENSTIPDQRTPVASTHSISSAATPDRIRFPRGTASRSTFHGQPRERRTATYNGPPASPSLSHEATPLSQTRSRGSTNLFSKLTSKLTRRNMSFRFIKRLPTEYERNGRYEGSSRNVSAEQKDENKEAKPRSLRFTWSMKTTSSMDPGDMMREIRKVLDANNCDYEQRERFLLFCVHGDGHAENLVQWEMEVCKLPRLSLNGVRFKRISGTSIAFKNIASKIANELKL
# MEK3 = MEK3 (Homo sapiens, UniProt P46734); details: 1 µM; binder
# Chain of MEK3 (P46734 whole entry): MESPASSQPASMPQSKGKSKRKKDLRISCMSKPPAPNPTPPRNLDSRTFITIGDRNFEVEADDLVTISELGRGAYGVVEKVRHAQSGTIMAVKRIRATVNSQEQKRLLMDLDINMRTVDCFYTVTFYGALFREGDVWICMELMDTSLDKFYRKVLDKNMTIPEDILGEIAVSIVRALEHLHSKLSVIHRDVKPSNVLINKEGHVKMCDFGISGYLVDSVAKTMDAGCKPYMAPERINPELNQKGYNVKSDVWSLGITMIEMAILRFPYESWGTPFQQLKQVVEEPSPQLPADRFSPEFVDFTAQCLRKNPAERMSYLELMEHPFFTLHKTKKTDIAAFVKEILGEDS
# MST1R = MST1R (Homo sapiens, UniProt Q04912); details: 1 µM; binder
# MST3 = MST3 (Homo sapiens, UniProt Q9Y6E0); details: 1 µM; binder
# PCTK2 = PCTK2 (Homo sapiens, UniProt Q00537); details: 1 µM; binder
# Chain of PCTK2 (Q00537 whole entry): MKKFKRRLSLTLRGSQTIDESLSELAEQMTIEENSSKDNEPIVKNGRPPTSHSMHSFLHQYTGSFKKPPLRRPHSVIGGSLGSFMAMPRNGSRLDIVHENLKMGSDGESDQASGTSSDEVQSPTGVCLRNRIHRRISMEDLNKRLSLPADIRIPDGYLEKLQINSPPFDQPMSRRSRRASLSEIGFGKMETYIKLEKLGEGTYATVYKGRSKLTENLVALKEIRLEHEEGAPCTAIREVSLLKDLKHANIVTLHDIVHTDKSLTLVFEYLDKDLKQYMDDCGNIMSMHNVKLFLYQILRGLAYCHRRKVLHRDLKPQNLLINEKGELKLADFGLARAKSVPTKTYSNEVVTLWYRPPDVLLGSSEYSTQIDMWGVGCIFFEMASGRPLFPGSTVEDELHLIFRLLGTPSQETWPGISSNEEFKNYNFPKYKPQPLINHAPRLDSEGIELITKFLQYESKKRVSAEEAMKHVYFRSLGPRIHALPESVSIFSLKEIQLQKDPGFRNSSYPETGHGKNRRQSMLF
# PFTAIRE2 = PFTAIRE2 (Homo sapiens, UniProt Q96Q40); details: 1 µM; binder
# PIK3CA(H1047L) = PIK3CA(H1047L) (Homo sapiens, UniProt P42336, H1047L); details: 1 µM; binder
# PIP4K2C = PIP4K2C (Homo sapiens, UniProt Q8TBX8); details: 1 µM; binder
# Chain of PIP4K2C (Q8TBX8 whole entry): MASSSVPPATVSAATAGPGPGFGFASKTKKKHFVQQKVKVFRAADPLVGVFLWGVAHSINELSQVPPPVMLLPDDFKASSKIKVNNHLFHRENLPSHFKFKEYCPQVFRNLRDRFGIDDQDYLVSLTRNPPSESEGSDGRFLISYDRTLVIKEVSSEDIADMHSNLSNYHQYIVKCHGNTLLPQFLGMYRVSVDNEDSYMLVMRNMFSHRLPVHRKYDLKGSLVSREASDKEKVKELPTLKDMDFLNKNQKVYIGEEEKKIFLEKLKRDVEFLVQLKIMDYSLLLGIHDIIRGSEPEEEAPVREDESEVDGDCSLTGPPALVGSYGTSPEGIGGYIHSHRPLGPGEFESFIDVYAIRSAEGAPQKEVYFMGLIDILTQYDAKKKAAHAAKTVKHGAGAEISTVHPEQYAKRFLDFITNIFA
# PRKCI = PRKCI (Homo sapiens, UniProt P41743); details: 1 µM; binder
# PRKD2 = PRKD2 (Homo sapiens, UniProt Q9BZL6); details: 1 µM; binder
# PRKR = PRKR (Homo sapiens, UniProt P19525); details: 1 µM; binder
# RET = RET (Homo sapiens, UniProt P07949); details: 1 µM; binder
# STK16 = STK16 (Homo sapiens, UniProt O75716); details: 1 µM; binder
# Chain of STK16 (O75716 whole entry): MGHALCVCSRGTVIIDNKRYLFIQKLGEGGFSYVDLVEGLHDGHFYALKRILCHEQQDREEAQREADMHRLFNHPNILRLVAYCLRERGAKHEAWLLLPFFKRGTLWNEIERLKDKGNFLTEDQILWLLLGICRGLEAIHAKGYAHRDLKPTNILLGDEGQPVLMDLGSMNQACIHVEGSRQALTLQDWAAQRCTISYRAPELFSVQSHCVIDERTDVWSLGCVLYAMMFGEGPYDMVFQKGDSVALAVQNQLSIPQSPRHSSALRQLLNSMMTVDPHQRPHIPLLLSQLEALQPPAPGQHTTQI
# TAOK1 = TAOK1 (Homo sapiens, UniProt Q7L7X3); details: 1 µM; binder
# VEGFR2 = VEGFR2 (Homo sapiens, UniProt P35968); details: 1 µM; binder
# WNK2 = WNK2 (Homo sapiens, UniProt Q9Y3S1); details: 1 µM; binder
# WNK3 = WNK3 (Homo sapiens, UniProt Q9BYP7); details: 1 µM; binder
# p38-delta = p38-delta (Homo sapiens, UniProt O15264); details: 1 µM; binder
# Chain of ABL1(F317I) (P00519 whole entry F317I): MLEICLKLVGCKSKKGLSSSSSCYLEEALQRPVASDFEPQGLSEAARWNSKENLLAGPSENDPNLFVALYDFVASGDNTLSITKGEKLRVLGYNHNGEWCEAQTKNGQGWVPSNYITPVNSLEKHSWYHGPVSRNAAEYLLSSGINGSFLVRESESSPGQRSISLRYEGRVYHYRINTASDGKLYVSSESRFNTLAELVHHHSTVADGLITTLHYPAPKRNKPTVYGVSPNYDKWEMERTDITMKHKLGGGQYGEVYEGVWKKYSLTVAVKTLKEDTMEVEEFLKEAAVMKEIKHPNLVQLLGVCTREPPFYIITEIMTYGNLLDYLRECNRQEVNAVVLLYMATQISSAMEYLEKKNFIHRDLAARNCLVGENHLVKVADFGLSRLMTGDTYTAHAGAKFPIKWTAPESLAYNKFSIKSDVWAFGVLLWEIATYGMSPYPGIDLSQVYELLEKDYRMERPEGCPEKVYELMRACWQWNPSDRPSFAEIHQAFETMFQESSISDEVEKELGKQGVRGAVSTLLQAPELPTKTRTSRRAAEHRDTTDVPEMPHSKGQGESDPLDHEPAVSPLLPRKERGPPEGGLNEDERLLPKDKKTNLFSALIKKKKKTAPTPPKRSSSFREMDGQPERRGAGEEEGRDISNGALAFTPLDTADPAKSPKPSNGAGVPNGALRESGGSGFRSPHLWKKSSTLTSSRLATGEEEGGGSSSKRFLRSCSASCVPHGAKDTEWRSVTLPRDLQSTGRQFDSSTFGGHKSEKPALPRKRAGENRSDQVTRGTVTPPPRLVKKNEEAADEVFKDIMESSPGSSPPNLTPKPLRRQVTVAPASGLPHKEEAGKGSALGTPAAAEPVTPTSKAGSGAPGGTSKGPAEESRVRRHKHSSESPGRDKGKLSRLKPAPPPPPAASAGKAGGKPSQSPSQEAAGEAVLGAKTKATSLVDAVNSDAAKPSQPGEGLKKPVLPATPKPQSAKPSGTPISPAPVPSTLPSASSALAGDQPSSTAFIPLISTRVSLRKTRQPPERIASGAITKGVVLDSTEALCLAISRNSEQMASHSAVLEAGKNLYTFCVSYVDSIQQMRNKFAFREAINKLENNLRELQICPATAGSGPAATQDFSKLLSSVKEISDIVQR
# Chain of CDC2L5 (Q14004 whole entry): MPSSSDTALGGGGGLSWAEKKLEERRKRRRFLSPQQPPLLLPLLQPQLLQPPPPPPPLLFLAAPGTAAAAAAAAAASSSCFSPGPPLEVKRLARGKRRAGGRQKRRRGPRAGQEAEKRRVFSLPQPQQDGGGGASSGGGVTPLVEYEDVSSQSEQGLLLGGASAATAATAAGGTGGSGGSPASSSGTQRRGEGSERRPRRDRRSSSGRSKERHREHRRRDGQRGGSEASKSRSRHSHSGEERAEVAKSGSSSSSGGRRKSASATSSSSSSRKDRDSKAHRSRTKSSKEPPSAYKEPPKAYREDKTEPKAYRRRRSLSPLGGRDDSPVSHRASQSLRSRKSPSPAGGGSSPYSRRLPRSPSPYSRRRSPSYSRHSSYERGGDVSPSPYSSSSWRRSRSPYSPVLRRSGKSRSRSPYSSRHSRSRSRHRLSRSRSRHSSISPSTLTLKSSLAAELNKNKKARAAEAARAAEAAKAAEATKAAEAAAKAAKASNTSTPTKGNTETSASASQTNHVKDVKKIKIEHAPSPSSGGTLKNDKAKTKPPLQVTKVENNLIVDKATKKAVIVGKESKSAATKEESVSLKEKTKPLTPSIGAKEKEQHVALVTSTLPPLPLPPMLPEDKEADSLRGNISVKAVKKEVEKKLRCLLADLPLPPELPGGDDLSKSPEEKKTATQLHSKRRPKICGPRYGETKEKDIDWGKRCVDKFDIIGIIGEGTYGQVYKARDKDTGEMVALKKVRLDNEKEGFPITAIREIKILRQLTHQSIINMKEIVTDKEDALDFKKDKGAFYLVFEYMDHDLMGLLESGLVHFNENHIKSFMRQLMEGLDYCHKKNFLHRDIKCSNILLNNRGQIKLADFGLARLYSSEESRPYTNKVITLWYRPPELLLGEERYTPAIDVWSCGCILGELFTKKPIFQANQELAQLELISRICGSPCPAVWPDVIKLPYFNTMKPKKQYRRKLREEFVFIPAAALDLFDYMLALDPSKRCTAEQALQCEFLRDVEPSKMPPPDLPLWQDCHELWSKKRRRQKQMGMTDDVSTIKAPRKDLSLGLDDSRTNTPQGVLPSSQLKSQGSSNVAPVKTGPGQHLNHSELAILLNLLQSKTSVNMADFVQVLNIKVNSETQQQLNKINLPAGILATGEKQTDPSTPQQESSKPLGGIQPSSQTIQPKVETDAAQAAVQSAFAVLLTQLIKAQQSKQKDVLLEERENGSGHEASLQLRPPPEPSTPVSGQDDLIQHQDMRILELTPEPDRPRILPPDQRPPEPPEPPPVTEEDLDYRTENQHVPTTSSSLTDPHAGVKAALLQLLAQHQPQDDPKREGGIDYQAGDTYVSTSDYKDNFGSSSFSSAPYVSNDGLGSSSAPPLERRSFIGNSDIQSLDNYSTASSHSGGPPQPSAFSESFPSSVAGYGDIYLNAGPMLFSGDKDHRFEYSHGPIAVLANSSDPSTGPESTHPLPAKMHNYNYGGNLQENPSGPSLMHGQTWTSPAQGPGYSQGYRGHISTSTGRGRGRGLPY
compound,measurement,setting,value
"CNc1ncc2cc(-c3ccc(-c4cccc(C)n4)cc3Cl)c(=O)n(C[C@H]3OC[C@H](N)CO3)c2n1 [compound 6, G-5555]",Percent Control,ABL1(F317I); nonphosphorylated,100%
same,Percent Control,ABL1(F317I); phosphorylated,96%
same,Percent Control,CASK,100%
same,Percent Control,CDC2L5,97%
same,Percent Control,CDK4-cyclinD3,100%
same,Percent Control,CLK2,100%
same,Percent Control,CSNK1D,100%
same,Percent Control,CSNK1E,52%
same,Percent Control,DRAK1,100%
same,Percent Control,EPHA5,100%
same,Percent Control,EPHA8,72%
same,Percent Control,FLT1,100%
same,Percent Control,JNK2,75%
same,Percent Control,MARK3,18%
same,Percent Control,MEK3,29%
same,Percent Control,MST1R,48%
same,Percent Control,MST3,1.7%
same,Percent Control,PCTK2,100%
same,Percent Control,PFTAIRE2,100%
same,Percent Control,PIK3CA(H1047L),100%
same,Percent Control,PIP4K2C,26%
same,Percent Control,PRKCI,63%
same,Percent Control,PRKD2,27%
same,Percent Control,PRKR,94%
same,Percent Control,RET,94%
same,Percent Control,STK16,69%
same,Percent Control,TAOK1,87%
same,Percent Control,VEGFR2,93%
same,Percent Control,WNK2,88%
same,Percent Control,WNK3,100%
same,Percent Control,p38-delta,100%
